Experimental data from PubChem BioAssay (NCI).
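Here, GI50 denotes the concentration required for 50% inhibition of growth. TGI denotes the concentration required for complete inhibition of growth.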

Columns and labels:
Test in all cases: DTP human tumour cell line panel, 384-well format
HCT-116 colon = system: HCT-116 colon
MDA-MB-231 breast = system: MDA-MB-231 breast
LOX IMVI melanoma = system: LOX IMVI melanoma
NCI-H460 NSCLC = system: NCI-H460 NSCLC
NCI-H322M lung = system: NCI-H322M lung
MCF7 breast = system: MCF7 breast
UACC-62 melanoma = system: UACC-62 melanoma
A549 NSCLC = system: A549 NSCLC
T-47D breast = system: T-47D breast
HS 578T breast = system: HS 578T breast
SK-OV-3 ovarian = system: SK-OV-3 ovarian
A498 renal = system: A498 renal
SK-MEL-2 melanoma = system: SK-MEL-2 melanoma
OVCAR-8 ovarian = system: OVCAR-8 ovarian
SNB-75 CNS = system: SNB-75 CNS
NCI/ADR-RES ovarian = system: NCI/ADR-RES ovarian
RPMI-8226 leukemia = system: RPMI-8226 leukemia
UACC-257 melanoma = system: UACC-257 melanoma
OVCAR-3 ovarian = system: OVCAR-3 ovarian
K-562 leukemia = system: K-562 leukemia
MDA-MB-435 melanoma = system: MDA-MB-435 melanoma
SR leukemia = system: SR leukemia
UO-31 renal = system: UO-31 renal
OVCAR-5 ovarian = system: OVCAR-5 ovarian
SF-268 CNS = system: SF-268 CNS
DU-145 prostate = system: DU-145 prostate
SW-620 colon = system: SW-620 colon
HCT-15 colon = system: HCT-15 colon
BT-549 breast = system: BT-549 breast
RXF 393 renal = system: RXF 393 renal
CCRF-CEM leukemia = system: CCRF-CEM leukemia
SNB-19 CNS = system: SNB-19 CNS
EKVX NSCLC = system: EKVX NSCLC
SK-MEL-28 melanoma = system: SK-MEL-28 melanoma
PC-3 prostate = system: PC-3 prostate
NCI-H522 lung = system: NCI-H522 lung
MALME-3M melanoma = system: MALME-3M melanoma
HOP-62 NSCLC = system: HOP-62 NSCLC
IGROV1 ovarian = system: IGROV1 ovarian
SN12C renal = system: SN12C renal
ACHN renal = system: ACHN renal
KM12 colon = system: KM12 colon
HCC-2998 colon = system: HCC-2998 colon
COLO 205 colon = system: COLO 205 colon
MOLT-4 leukemia = system: MOLT-4 leukemia
HL-60(TB) leukemia = system: HL-60(TB) leukemia
HOP-92 NSCLC = system: HOP-92 NSCLC

Cn1cc(-c2cc3c(N4CCN(c5ncc([C@@](C)(N)c6ccc(F)cc6)cn5)CC4)ncnn3c2)cn1
GI50 (HCT-116 colon): 3.39 µM
TGI (HCT-116 colon): 12.3 µM
GI50 (MDA-MB-231 breast): 3.47 µM
TGI (MDA-MB-231 breast): > 35.4 µM
GI50 (LOX IMVI melanoma): 0.881 µM
TGI (LOX IMVI melanoma): 3.47 µM
GI50 (NCI-H460 NSCLC): 3.73 µM
TGI (NCI-H460 NSCLC): 12.5 µM
GI50 (NCI-H322M lung): 6.68 µM
TGI (NCI-H322M lung): 21.5 µM
GI50 (MCF7 breast): 2.31 µM
TGI (MCF7 breast): 8.7 µM
GI50 (UACC-62 melanoma): 4.42 µM
TGI (UACC-62 melanoma): 17.8 µM
GI50 (A549 NSCLC): 4.21 µM
TGI (A549 NSCLC): 36.5 µM
GI50 (T-47D breast): 1.49 µM
TGI (T-47D breast): 6.16 µM
GI50 (HS 578T breast): 1.75 µM
TGI (HS 578T breast): 5.83 µM
GI50 (SK-OV-3 ovarian): 7.9 µM
TGI (SK-OV-3 ovarian): 52.7 µM
GI50 (A498 renal): 3.12 µM
TGI (A498 renal): 9.79 µM
GI50 (SK-MEL-2 melanoma): 3.84 µM
TGI (SK-MEL-2 melanoma): 16.8 µM
GI50 (OVCAR-8 ovarian): 4.07 µM
TGI (OVCAR-8 ovarian): > 50.8 µM
GI50 (SNB-75 CNS): 2.16 µM
TGI (SNB-75 CNS): 7.03 µM
GI50 (NCI/ADR-RES ovarian): 3.19 µM
TGI (NCI/ADR-RES ovarian): 17.9 µM
GI50 (RPMI-8226 leukemia): 1.59 µM
TGI (RPMI-8226 leukemia): 3.21 µM
GI50 (UACC-257 melanoma): 2.1 µM
TGI (UACC-257 melanoma): 4.76 µM
GI50 (OVCAR-3 ovarian): 6.11 µM
TGI (OVCAR-3 ovarian): 18 µM
GI50 (K-562 leukemia): 1.12 µM
TGI (K-562 leukemia): 2.79 µM
GI50 (MDA-MB-435 melanoma): 7.13 µM
TGI (MDA-MB-435 melanoma): 27 µM
GI50 (SR leukemia): 1.58 µM
TGI (SR leukemia): 3.02 µM
GI50 (UO-31 renal): 3.6 µM
TGI (UO-31 renal): 14.7 µM
GI50 (OVCAR-5 ovarian): 5.61 µM
TGI (OVCAR-5 ovarian): 29.5 µM
GI50 (SF-268 CNS): 7.57 µM
TGI (SF-268 CNS): 38.3 µM
GI50 (DU-145 prostate): 5.67 µM
TGI (DU-145 prostate): > 45.1 µM
GI50 (SW-620 colon): 2.97 µM
TGI (SW-620 colon): 11.5 µM
GI50 (HCT-15 colon): 2.97 µM
TGI (HCT-15 colon): 20.2 µM
GI50 (BT-549 breast): 2.52 µM
TGI (BT-549 breast): 7.85 µM
GI50 (RXF 393 renal): 1.03 µM
TGI (RXF 393 renal): 3.02 µM
GI50 (CCRF-CEM leukemia): 2.78 µM
TGI (CCRF-CEM leukemia): 10.2 µM
GI50 (SNB-19 CNS): 5.93 µM
TGI (SNB-19 CNS): 24.4 µM
GI50 (EKVX NSCLC): 2.97 µM
TGI (EKVX NSCLC): 31.6 µM
GI50 (SK-MEL-28 melanoma): 6.9 µM
TGI (SK-MEL-28 melanoma): 19.7 µM
GI50 (PC-3 prostate): 2.86 µM
TGI (PC-3 prostate): 13.9 µM
GI50 (NCI-H522 lung): 2.41 µM
TGI (NCI-H522 lung): 23.3 µM
GI50 (MALME-3M melanoma): 2.46 µM
TGI (MALME-3M melanoma): 5.79 µM
GI50 (HOP-62 NSCLC): 3.14 µM
TGI (HOP-62 NSCLC): > 50.1 µM
GI50 (IGROV1 ovarian): 4.45 µM
TGI (IGROV1 ovarian): 16.7 µM
GI50 (SN12C renal): 4.54 µM
TGI (SN12C renal): 16.7 µM
GI50 (ACHN renal): 3.7 µM
TGI (ACHN renal): 13.9 µM
GI50 (KM12 colon): 4.11 µM
TGI (KM12 colon): 28.1 µM
GI50 (HCC-2998 colon): 2.15 µM
TGI (HCC-2998 colon): 3.82 µM
GI50 (COLO 205 colon): 2.73 µM
TGI (COLO 205 colon): 6.51 µM
GI50 (MOLT-4 leukemia): 1.38 µM
TGI (MOLT-4 leukemia): 2.73 µM
GI50 (HL-60(TB) leukemia): 2.24 µM
TGI (HL-60(TB) leukemia): 4.94 µM
GI50 (HOP-92 NSCLC): 2.66 µM
TGI (HOP-92 NSCLC): 10.2 µM

C=CC(=O)Nc1cc(Nc2nccc(-c3cn(C)c4ccccc34)n2)c(OC)cc1N(C)CCN(C)C
GI50 (HCT-116 colon): 1.61 µM
TGI (HCT-116 colon): 3.02 µM
GI50 (MDA-MB-231 breast): 1.79 µM
TGI (MDA-MB-231 breast): 3.21 µM
GI50 (LOX IMVI melanoma): 2.06 µM
TGI (LOX IMVI melanoma): 3.5 µM
GI50 (NCI-H460 NSCLC): 1.76 µM
TGI (NCI-H460 NSCLC): 3.19 µM
GI50 (NCI-H322M lung): 0.179 µM
TGI (NCI-H322M lung): 1.12 µM
GI50 (MCF7 breast): 1.18 µM
TGI (MCF7 breast): 2.58 µM
GI50 (UACC-62 melanoma): 1.64 µM
TGI (UACC-62 melanoma): 3.02 µM
GI50 (A549 NSCLC): 1.34 µM
TGI (A549 NSCLC): 3.59 µM
GI50 (T-47D breast): 0.957 µM
TGI (T-47D breast): 2.38 µM
GI50 (HS 578T breast): 1.55 µM
TGI (HS 578T breast): 3.04 µM
GI50 (SK-OV-3 ovarian): 1.74 µM
TGI (SK-OV-3 ovarian): 5.73 µM
GI50 (A498 renal): 1.12 µM
TGI (A498 renal): 2.53 µM
GI50 (SK-MEL-2 melanoma): 0.354 µM
TGI (SK-MEL-2 melanoma): 1.2 µM
GI50 (OVCAR-8 ovarian): 1.42 µM
TGI (OVCAR-8 ovarian): 2.76 µM
GI50 (SNB-75 CNS): 2.71 µM
TGI (SNB-75 CNS): 6.41 µM
GI50 (NCI/ADR-RES ovarian): 1.13 µM
TGI (NCI/ADR-RES ovarian): 2.37 µM
GI50 (RPMI-8226 leukemia): 0.98 µM
TGI (RPMI-8226 leukemia): 2.23 µM
GI50 (UACC-257 melanoma): 0.84 µM
TGI (UACC-257 melanoma): 1.58 µM
GI50 (OVCAR-3 ovarian): 1.13 µM
TGI (OVCAR-3 ovarian): 2.46 µM
GI50 (K-562 leukemia): 1.16 µM
TGI (K-562 leukemia): 2.39 µM
GI50 (MDA-MB-435 melanoma): 2 µM
TGI (MDA-MB-435 melanoma): 3.55 µM
GI50 (SR leukemia): 0.602 µM
TGI (SR leukemia): 1.29 µM
GI50 (UO-31 renal): 0.746 µM
TGI (UO-31 renal): 2.12 µM
GI50 (OVCAR-5 ovarian): 1.62 µM
TGI (OVCAR-5 ovarian): 3.93 µM
GI50 (SF-268 CNS): 1.49 µM
TGI (SF-268 CNS): 3.23 µM
GI50 (DU-145 prostate): 1.14 µM
TGI (DU-145 prostate): 2.61 µM
GI50 (SW-620 colon): 1.76 µM
TGI (SW-620 colon): 3.18 µM
GI50 (HCT-15 colon): 1.25 µM
TGI (HCT-15 colon): 2.6 µM
GI50 (BT-549 breast): 1.33 µM
TGI (BT-549 breast): 2.62 µM
GI50 (RXF 393 renal): 0.806 µM
TGI (RXF 393 renal): 2.15 µM
GI50 (CCRF-CEM leukemia): 1.39 µM
TGI (CCRF-CEM leukemia): 2.69 µM
GI50 (SNB-19 CNS): 3.02 µM
TGI (SNB-19 CNS): 8.81 µM
GI50 (EKVX NSCLC): 0.617 µM
TGI (EKVX NSCLC): 2.17 µM
GI50 (SK-MEL-28 melanoma): 1.66 µM
TGI (SK-MEL-28 melanoma): 3.04 µM
GI50 (PC-3 prostate): 1.61 µM
TGI (PC-3 prostate): 3.09 µM
GI50 (NCI-H522 lung): 0.0495 µM
TGI (NCI-H522 lung): 0.843 µM
GI50 (MALME-3M melanoma): 1.15 µM
TGI (MALME-3M melanoma): 2.54 µM
GI50 (HOP-62 NSCLC): 1.56 µM
TGI (HOP-62 NSCLC): 3.37 µM
GI50 (IGROV1 ovarian): 0.44 µM
TGI (IGROV1 ovarian): 1.88 µM
GI50 (SN12C renal): 1.33 µM
TGI (SN12C renal): 3.13 µM
GI50 (ACHN renal): 0.453 µM
TGI (ACHN renal): 2.21 µM
GI50 (KM12 colon): 2.56 µM
TGI (KM12 colon): 5.72 µM
GI50 (HCC-2998 colon): 0.767 µM
TGI (HCC-2998 colon): 2 µM
GI50 (COLO 205 colon): 1.59 µM
TGI (COLO 205 colon): 2.95 µM
GI50 (MOLT-4 leukemia): 0.921 µM
TGI (MOLT-4 leukemia): 2.15 µM
GI50 (HL-60(TB) leukemia): 0.756 µM
TGI (HL-60(TB) leukemia): 1.94 µM
GI50 (HOP-92 NSCLC): 1.15 µM
TGI (HOP-92 NSCLC): 2.38 µM
